For data set [1] the following is noted: oral; background statement, species not given; cited from earlier work.
In the next data set the test system is human volunteers. The data set can be described thus: Analgetic effect in human volunteers, oral. It counts as in vivo. As to conditions: Ptz alone, 50 mg oral.
The subject of another data set is albino rats. In words: Analgetic effect in albino rats, oral. The format is in vivo, rat. As to conditions: Ptz alone, up to 240 mg/kg, p.o.
The subject of data set [2] is Streptozocin (Stz)-induced diabetic (SID) rats. In words: Plasma glucose level lowering in streptozocin-induced diabetic (SID) rats. It counts as in vivo, rat. As for the experimental part:
Streptozocin (Stz)-induced diabetic (SID) rats were used for this study. Insulin (I, 1.0 U/kg, p.o.) produed only marginal lowering (<10%) of plasma glucose level (PGL) in SID rats. […] By contrast, purified fulvic acid-insulin compositions (0.25 U/kg+10 mg/kg, p.o.) produced a 25% lowering, and Fulvic Acid-Insulin compositions (0.5 U/kg+10 mg/kg, p.o.) produced a 38% lowering of PGL in SID rates. The effect lasted for 6 hours.

On data set [3], the source says: (§1) Glibenclamide (Gb) is an oral hypoglycaemic agent of the sulfonyl urea group; however it is only sparingly soluble in water.
Data set [4] relates to albino rats, made partially diabetic by administering streptozotocin. The data set can be described thus: Hypoglycaemic action (plasma glucose level) in albino rats made partially diabetic by streptozotocin. As to conditions: Gb 1.0 mg/kg, water-suspension, p.o., n=10. It counts as in vivo, rat.
Text: as §1

As for `CC(C)=CCN1CCC2(C)c3cc(O)ccc3CC1C2C` (stereo not shown) [Ptz, Pentazocin], the “bioavailability, administered orally” value in data set [1] is recorded as 30-35%. Further, in the data set on human volunteers, the “analgetic effect compared with codeine” value is “effective analgetic equivalent to 60 mg of codeine”, the duration of analgesia turned out to be 120 min and the “time of onset of analgesia” value was determined as 60 min. In addition, in the data set with albino rats, the analgetic effect entry is given as “does not exhibit any analgetic effect”.
Take Insulin: the PGL lowering effect entry in data set [2] (insulin 0.25 U/kg p.o.) and in data set [2] (insulin 0.5 U/kg p.o.) was “did not exhibit any PGL lowering effect” in each case. Further, the “lowering of plasma glucose level (PGL)” value in data set [2] (insulin 1.0 U/kg, p.o.) is under 10%.
In the case of `COc1ccc(Cl)cc1C(=O)NCCc1ccc(S(=O)(=O)NC(=O)NC2CCCCC2)cc1` [Gb, Glibenclamide], the solubility in water in data set [3] is reported as 10-12%. In data set [4], the “blood sugar lowering effect” value is on record as “did not exhibit any noticeable blood sugar lowering effect”.

The record behind these values is US6558712B1, “Delivery system for pharmaceutical, nutritional and cosmetic ingredients” (Natreon Inc., priority 2001, dated 2003).
